From ChEMBL document CHEMBL5230120, “Antiviral potential of natural products from marine microbes” (Eur J Med Chem, 2020)
In brackets after ≈: the same amount, converted by molar mass. Starred links: 1 amine or outer side, 2 acyl side, 3 side chain; linkers in the order of their positions; H or OH if unused. Positions of bridges follow the written chain, without caps; N, C: chain ends. Non-standard residues stand in square brackets, D forms with d. Residues, ends and D or L forms follow the SMILES beside them. X1 = CCCCCCCCC[C@@H](CCCC(=O)[*:1])O[*:2]; d(aThr) = C[C@@H](O)[C@@H](N)C(=O)O; dNMeY = CN[C@H](Cc1ccc(O)cc1)C(=O)O; aIle = CC[C@@H](C)[C@H](N)C(=O)O

How the values were obtained:
[1] = tested on: Human alphaherpesvirus 1; format: functional, organism-based; settings: Human alphaherpesvirus 1, KOS, Vero, 72 h
[2] = tested on: Influenza A virus; format: functional, organism-based; settings: A/Puerto Rico/8/1934(H1N1), MDCK, 48 h
[3] = tested on: Human alphaherpesvirus 1; format: functional, organism-based; settings: Human alphaherpesvirus 1, 15577, Vero
[4] = tested on: Influenza A virus; experiment: microbe, parasite or virus in culture; settings: A/WSN/33 (H1N1), MDCK
[5] = tested on: Human alphaherpesvirus 1; format: functional, organism-based; settings: Human alphaherpesvirus 1, Vero, 72 h
[6] = tested on: Human alphaherpesvirus 1; format: functional, organism-based; settings: Human alphaherpesvirus 1, Vero, 72 h; remark: listed apart in the source
[7] = tested on: Human alphaherpesvirus 1; format: functional, organism-based; settings: Human alphaherpesvirus 1, Vero, 72 h; remark: listed apart in the source
[8] = tested on: Human immunodeficiency virus 1; experiment: Antiviral activity against HIV1 VSV-G pseudotyped virus infected in human SUP-T1 cells infected using supernatant of virus-producing 293T cells incubated for 48 hrs by firefly luciferase assay; format: functional, organism-based; settings: Human immunodeficiency virus 1, HEK293, 48 h
[9] = tested on: Hepatitis C virus; experiment: Antiviral activity against HCV infected in human Huh7.5 cells incubated for 72 hrs by RT-PCR assay; format: functional, organism-based, Hepacivirus hominis; settings: Huh7.5, 72 h
[10] = tested on: Chikungunya virus; experiment: Antiviral activity against CHIKV infected in Golden hamster BHK-21 cells assessed as reduction in viral titer incubated for 3 days by plaque assay; format: functional, organism-based; settings: BHK-21, 72 h
[11] = tested on: Influenza A virus; format: functional, organism-based; settings: H1N1
[12] = tested on: Influenza A virus; format: functional
[13] = tested on: Respiratory syncytial virus; format: functional, organism-based; settings: human respiratory syncytial virus, HEp-2
[14] = tested on: Enterovirus A71; format: functional, organism-based; settings: Enterovirus A, Vero
[15] = tested on: Enterovirus A71; format: functional, organism-based; settings: Enterovirus A, Vero; remark: listed apart in the source
[16] = Cytotoxicity against human HEK293 cells assessed as reduction in cell viability; format: toxicity, cell-based
[17] = tested on: Dengue virus; experiment: Antiviral activity against Dengue virus serotype 2 infected in HEK293T/17 cells assessed as reduction in viral production at 50 uM incubated for 24 hrs by flow cytometric analysis; format: functional; design: scale not given: the % may be the effect or the level left
[18] = tested on: Human alphaherpesvirus 1; format: functional, organism-based; settings: Human alphaherpesvirus 1, Vero, 72 h; remark: listed apart in the source
[19] = tested on: Influenza A virus; experiment: microbe, parasite or virus in culture; settings: H3N2, Vero
[20] = tested on: Influenza A virus; experiment: microbe, parasite or virus in culture; settings: H3N2, MDCK, 48 h
[21] = tested on: Influenza A virus; experiment: microbe, parasite or virus in culture; settings: H1N1, MDCK, 48 h
[22] = tested on: Human alphaherpesvirus 1; format: functional, organism-based; settings: Human alphaherpesvirus 1, Vero, 72 h; remark: listed apart in the source
[23] = tested on: Human immunodeficiency virus 1; experiment: Antiviral activity against HIV-1 infected in human HEK293 cells co-expressing firefly luciferase gene assessed as inhibition of viral growth incubated for 48 hrs by firefly luciferase assay; format: functional, organism-based; settings: Human immunodeficiency virus 1, HEK293, 48 h
[24] = tested on: Western equine encephalitis virus; experiment: Antiviral activity against Western equine encephalomyelitis virus Cba-87 infected in Golden hamster BSR-T7/5 cells assessed as reduction in viral RNA replication by RT-PCR analysis; format: functional, organism-based; settings: Cba-87, BSR-T7/5

COc1cc(O)c2c(c1)[C@H](O)[C@](O)(CO)CC2=O
IC50 [1]: 1 µg/mL (≈ 3.93 µM)

CCC[C@H]1C[C@H]2OC(=O)c3c(cc(OC)c(OC)c3O)[C@H]2O1 [MONOCERIN]
IC50 [2]: 176 µM

COc1ccc(C[C@@H]2NC(=O)[C@@H]3CCCN3C(=O)[C@H](C(C)C)NC(=O)[C@@H](Cc3ccc(O)cc3)N(C)C(=O)[C@H](Cc3ccc(OC)cc3)NC2=O)cc1 (cyclo(PY(Me)Y(Me)[dNMeY]V))
IC50 [3]: 9.5 µM

CC(C)[C@@H](NC(=O)[C@H](Cc1c[nH]c2ccccc12)NC(=O)[C@H](N)Cc1ccc(O)cc1)C(=O)O
IC50 [3]: 19.8 µM

CC(C)CC[C@@H]1NC(=O)/C(=C/c2ccccc2)NC1=O
IC50 [2]: 6.8 µM

C=C(C)C#CC1=C[C@@H]2O[C@@H](C(C)(C)O)C[C@]23O[C@@H]3[C@@H]1O
IC50 [4]: 30.4 µM

CCC(C)[C@@H]1C(=O)/C(=C(/O)[C@@H]2[C@@H]([C@@H]3O[C@H]3C)C(C)=C[C@@H]3CCC[C@H](C)[C@@H]23)C(=O)N1C (stereo partly specified)
IC50 [5]: 3.08 µM

CCCCCCCCC[C@H]1CCCC(=O)N[C@H]([C@@H](C)O)C(=O)N[C@H](C)C(=O)N2CCC[C@H]2C(=O)N[C@@H](CCC(N)=O)C(=O)N[C@H](Cc2ccc(O)cc2)C(=O)N[C@@H](C(C)C)C(=O)O1
EC50 [6]: 16.7 µM

COc1ccc(-c2cc3c(c(=O)o2)C[C@]2(O)[C@@]4(C)C(=O)C=CC(C)(C)[C@]4(O)CC[C@@]2(C)O3)cc1OC
IC50 [7]: 6.34 µg/mL (≈ 12.8 µM)

CC[C@H](C)c1nc(OC)c(Cc2c[nH]c3ccccc23)nc1O
IC50 [8]: 4.6 µM
IC50 [9]: 7.7 µM

CO[C@@H](CC[C@H](C)[C@H]1O[C@@]23C[C@H](OC(=O)C[C@H]([C@@H](C)O)OC(=O)C[C@](OC)(O2)[C@H](C)CC3(C)C)[C@@H]1C)c1cccc(O)c1
IC50 [10]: 2.7 µM

COc1cc(O)c2c(c1)[C@H](O)[C@](O)(CC(C)O)CC2=O (stereo partly specified)
IC50 [1]: 0.01 µg/mL (≈ 0.0354 µM)

NC(=O)c1ncn([C@@H]2O[C@H](CO)[C@@H](O)[C@H]2O)n1 [RIBAVIRIN]
IC50 [2]: 38.8 µM
IC50 [11]: 133 µM
inhibition at 50 µg/mL [12]: 45.3%
IC50 [13]: 0.08 µM
IC50 [14]: 13.3 µM
IC50 [15]: 13.3 µM

O=C1Nc2ccc(Cl)cc2[C@@](C#CC2CC2)(C(F)(F)F)O1 [EFAVIRENZ]
IC50 [16]: 40.6 µM

COc1cc(O)c2c(c1)[C@H](O)[C@@H](CC(C)=O)CC2=O
IC50 [1]: 1 µg/mL (≈ 3.78 µM)

CO[C@@H](CC[C@H](C)[C@H]1O[C@]23C[C@H](OC(=O)C[C@H]([C@@H](C)O)OC(=O)CC(=C(C)CC2(C)C)O3)[C@@H]1C)c1cccc(O)c1
IC50 [10]: 22.3 µM

Cc1c2c(c3oc4c(C)c(=O)c(C)c5c-4c(c3c1O)O[C@H](C)[C@H]5C)O[C@H](C)[C@H]2C
IC50 [14]: 14.5 µM

CCCCCCCCC[C@H]1CCCC(=O)N[C@H](CO)C(=O)N[C@H](C)C(=O)N2CCC[C@H]2C(=O)N[C@@H](CCC(N)=O)C(=O)N[C@H](Cc2ccc(O)cc2)C(=O)N[C@@H](C(C)C)C(=O)O1
EC50 [6]: 15.6 µM

COc1cc(O)c2c(c1)[C@@H]1OC(C)(OC)C[C@]1(O)CC2=O (stereo partly specified)
IC50 [1]: 0.1 µg/mL (≈ 0.34 µM)

CCC[C@H]1C[C@H]2OC(=O)c3c(cc(O)c(OC)c3O)[C@H]2O1
IC50 [2]: 172 µM

COc1cc(O)c2c(c1)[C@H](O)[C@](O)(CC(C)=O)CC2=O
IC50 [1]: 0.1 µg/mL (≈ 0.357 µM)

COC1(Cc2ccc(O)cc2)OC(=O)C(O)=C1c1ccc(O)cc1 (stereo unspecified)
IC50 [7]: 21.8 µg/mL (≈ 66.4 µM)

CC(C)[C@@H]1NC(=O)[C@@H](C[C@@]2(O)c3ccccc3N3C(=O)C(C)(C)N[C@@H]32)n2c1nc1ccccc1c2=O
Activity [17]: 50%

C=C(C)C#CC1=C[C@@H]2O[C@@H](C(C)(C)O)C[C@]23O[C@@H]3[C@H]1O
IC50 [16]: > 100 µM

CC1(C)CCc2cc(/C=C3\OC(=O)C=C3c3ccc(O)cc3)ccc2O1
IC50 [2]: 87.1 µM

C[C@@H]1C/C=C/C(=O)C/C=C/[C@H](O)CC(=O)O1
IC50 [18]: 0.45 µM

CCOC(=O)C1=C[C@@H](OC(CC)CC)[C@H](NC(C)=O)[C@@H](N)C1 [OSELTAMIVIR]
IC50 [4]: 46.7 µM
IC50 [19]: 0.034 µM

C/C=C(\C)[C@H]1C(C)=C[C@@H]2CCC[C@H](C)[C@H]2[C@@H]1/C(O)=C1\C(=O)[C@@H](C(C)C)N(C)C1=O
IC50 [5]: 3.12 µM

COC(=O)[C@]1(Cc2ccc3c(c2)CCC(C)(C)O3)OC(=O)C(O)=C1c1ccc(O)cc1
IC50 [7]: 28.9 µg/mL (≈ 68.1 µM)

CC(=O)[C@H]1CC[C@H]2C3=CC(=O)[C@H]4C[C@H](O)CC[C@]4(C)[C@H]3CC[C@]12C
IC50 [19]: 16.2 µM

CC(O)c1cc2c(cc1O)C(=O)c1cc(O)cc(O)c1C2=O (stereo unspecified)
IC50 [15]: 25.7 µM

CC(=O)c1c(O)cc2c3c(cccc13)C=C(C[C@@H](C)O)O2
inhibition at 50 µg/mL [12]: 42.5%

C=C(CC[C@@H](C)[C@H]1CC=C2C3=C(CC[C@@]21C)[C@@]1(C)CC[C@H](O)C[C@@H]1CC3=O)C(C)C
IC50 [8]: 3.5 µM

CC(C)/C=c1\[nH]c(=O)/c(=C/c2ccc(O)cc2)[nH]c1=O
IC50 [2]: 41.5 µM

COc1cc(O)c2c(c1)[C@H](O)[C@@H](CO)CC2=O
IC50 [1]: 1 µg/mL (≈ 4.2 µM)

CCCCC/C=C/C1=C(CO)[C@@H]2OC(C)(C)[C@@H](O)C[C@]2(O)[C@H](O)[C@@H]1O
IC50 [13]: 72 µM

COc1ccc(-c2cc3c(c(=O)o2)C[C@H]2[C@@](C)(CC[C@@]4(O)C(C)(C)OC(=O)CC[C@]24C)O3)cc1
IC50 [7]: 16.4 µg/mL (≈ 35 µM)

CC[C@H]1O[C@@H]2O[C@H](/C=C/C=C/C=C/c3oc(=O)cc(OC/C=C(\C)C(=O)OC)c3C)[C@H](O)[C@]2(C)[C@@]1(C)O
IC50 [20]: 0.0062 µM
IC50 [21]: 3.5 µM

Nc1nc2c(ncn2COC(CO)CO)c(=O)[nH]1 [GANCICLOVIR]
EC50 [22]: 0.025 µM

COc1cc(CCCC(C)C)oc(=O)c1C
IC50 [23]: 16.1 µM
IC50 [16]: > 100 µM

CC(=O)C(C)(O)CCCCC[C@H]1C=CC(=O)O1 (stereo partly specified)
EC50 [22]: 25.4 µM

Nc1nc2c(ncn2COCCO)c(=O)[nH]1 [ACYCLOVIR]
EC50 [6]: 3 µM
IC50 [5]: 3.5 µM

O=C1C[C@H](O)Cc2cc3cc(O)cc(-c4ccccc4)c3c(O)c21
inhibition at 50 µg/mL [12]: 47.8%

CCCCCCCC[C@H]1C(=O)O[C@H](C)[C@H](NC(=O)c2cccc(NC=O)c2O)C(=O)O[C@@H](C)[C@@H]1OC(=O)CC(C)CC (stereo partly specified)
IC50 [24]: 0.003 µM

CC1=C[C@@H]2CCC[C@H](C)[C@H]2[C@H](/C(O)=C2\C(=O)[C@@H](C(C)C)N(C)C2=O)[C@H]1[C@@H]1O[C@H]1C
IC50 [5]: 9.37 µM

CO[C@@H](CC[C@H](C)[C@H]1O[C@@]23C[C@H](OC(=O)C[C@H]([C@@H](C)O)OC(=O)C[C@](O)(O2)[C@H](C)CC3(C)C)[C@@H]1C)c1cccc(O)c1 [DEBROMOAPLYSIATOXIN]
IC50 [10]: 1.3 µM

CCCCC/C=C/C1=C(CO)[C@@H]2OC(C)(C)[C@@H](O)C[C@@]23O[C@H]3[C@@H]1O
IC50 [13]: 30.2 µM

COC(=O)/C(C)=C/COc1cc(=O)oc(/C=C/C=C/C=C/[C@H]2O[C@H]3O[C@H](C)[C@](C)(O)[C@@]3(C)[C@H]2O)c1C
IC50 [20]: 0.0089 µM

CC(=O)[C@H]1CC[C@H]2C3=CC(=O)[C@@]4(C)C[C@H](O)CC[C@]4(C)[C@H]3CC[C@]12C
IC50 [13]: 0.12 µM

CCCCCCCCC[C@H]1CCCC(=O)N[C@H]([C@@H](C)O)C(=O)N[C@H](C)C(=O)N2CCC[C@H]2C(=O)N[C@@H](CCC(N)=O)C(=O)N[C@H](Cc2ccc(O)cc2)C(=O)N[C@@H]([C@H](C)CC)C(=O)O1 ([d(aThr)][dA]PQ[dY][aIle]; linker N-C via X1)
EC50 [6]: 14 µM

O=C(O)c1ccccc1Nc1c(C[C@H](O)[C@H](O)CO)[nH]c2c(C(=O)O)cccc12
IC50 [11]: 171 µM
